Assay results from the supplement of paper PMC11451515.

Legend:
Settings in all cases: 48 h
NOMO1 [1] = assay: AUC of viability dose-response curve (% viability x log10 dose units); higher = less sensitive
Summary of the method: (§1)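 In 1536-well plates, leukemia cells adapted to each medium (500 or 1000 cells/well) were exposed for 48 h at 37°C to library compounds in DMSO across 11 threefold doses, 47 μM down to 0.79 nM. Viability was read by CellTiter-Glo One luminescence and normalised per plate to DMSO and cell-free wells. A four-parameter log-logistic fit over log10 doses was integrated by trapezoidal rule. This yielded the area under the curve, with over-full-viability curves scaled and quality-control failures dropped.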

P12-Ichikawa [2] = assay: as above
Summary of the method: as §1

SEM cells = assay: cell viability relative to DMSO control; higher = less cytotoxic
Summary of the method: (§2)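 Viability was expressed as a per-plate percentage of DMSO wells, with cell-free wells as background. Leukemia cells (NOMO1 or SEM at 500 cells/well, P12-Ichikawa at 1000 cells/well) were adapted for at least four passages in each medium and seeded in 1536-well plates (5 μl). Library compounds in DMSO were pin-dosed over an 11-point threefold series from 47 μM to 0.79 nM, and CellTiter-Glo One luminescence was read after 48 h at 37°C.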

NOMO1 [3] = assay: as above
Summary of the method: as §2

P12-Ichikawa [4] = assay: as above
Summary of the method: as §2

CO[C@H]1/C=C/O[C@@]2(C)Oc3c(C)c(O)c4c(c3C2=O)C2=NC3(CCN(CC(C)C)CC3)NC2=C(NC(=O)/C(C)=C/C=C/[C@H](C)[C@H](O)[C@@H](C)[C@@H](O)[C@@H](C)[C@H](OC(C)=O)[C@@H]1C)C4=O
AUC of viability dose-response curve
Settings	HPLM + 10% dialyzed FBS	RPMI 5 mM glucose + 10% FBS	RPMI 5 mM glucose + 10% dialyzed FBS
NOMO1 [1]	471	476	466
P12-Ichikawa [2]	469	466	471

cell viability [%]
Settings	HPLM + 10% dialyzed FBS	RPMI 5 mM glucose + 10% FBS	RPMI 5 mM glucose + 10% dialyzed FBS
NOMO1 [3], 0.000781 µM	117	–	–
NOMO1 [3], 0.00234 µM	111	–	–
NOMO1 [3], 0.00702 µM	146	–	–
NOMO1 [3], 0.0211 µM	135	–	–
NOMO1 [3], 0.0632 µM	132	–	–
NOMO1 [3], 0.19 µM	127	–	–
NOMO1 [3], 0.569 µM	138	–	–
NOMO1 [3], 1.71 µM	137	–	–
NOMO1 [3], 5.12 µM	127	–	–
NOMO1 [3], 15.4 µM	113	–	–
NOMO1 [3], 46.1 µM	117	–	–
SEM cells, 0.000781 µM	92.6	116	110
SEM cells, 0.00234 µM	80.4	114	100
SEM cells, 0.00702 µM	103	133	118
SEM cells, 0.0211 µM	109	133	117
SEM cells, 0.0632 µM	122	153	135
SEM cells, 0.19 µM	118	144	122
SEM cells, 0.569 µM	123	135	130
SEM cells, 1.71 µM	17.8	10.7	26.7
SEM cells, 5.12 µM	122	152	123
SEM cells, 15.4 µM	108	125	93
SEM cells, 46.1 µM	105	113	99.1

CN(C)C/C=C/C(=O)Nc1ccc(C(=O)Nc2cccc(Nc3ncc(Cl)c(-c4c[nH]c5ccccc45)n3)c2)cc1
AUC of viability dose-response curve
Settings	HPLM + 10% dialyzed FBS	RPMI 5 mM glucose + 10% FBS	RPMI 5 mM glucose + 10% dialyzed FBS
NOMO1 [1]	248	248	235
P12-Ichikawa [2]	240	234	247

cell viability [%]
Settings	NOMO1 [3]	P12-Ichikawa [4]	SEM cells
HPLM + 10% dialyzed FBS, 0.000781 µM	78.8	81.9	75.1
HPLM + 10% dialyzed FBS, 0.00234 µM	99.4	85.6	79.4
HPLM + 10% dialyzed FBS, 0.00702 µM	101	85.8	90
HPLM + 10% dialyzed FBS, 0.0211 µM	94.6	94.8	62.5
HPLM + 10% dialyzed FBS, 0.0632 µM	88.4	82.5	85.8
HPLM + 10% dialyzed FBS, 0.19 µM	85.2	78.6	47.6
HPLM + 10% dialyzed FBS, 0.569 µM	5.25	17.3	4.17
HPLM + 10% dialyzed FBS, 1.71 µM	4.49	10.2	3.85
HPLM + 10% dialyzed FBS, 5.12 µM	4.42	4.95	3.85
HPLM + 10% dialyzed FBS, 15.4 µM	3.89	3.8	3.77
HPLM + 10% dialyzed FBS, 46.1 µM	3.78	3.94	3.63
RPMI 5 mM glucose + 10% FBS, 0.000781 µM	81.9	78	97.5
RPMI 5 mM glucose + 10% FBS, 0.00234 µM	91.4	85.3	122
RPMI 5 mM glucose + 10% FBS, 0.00702 µM	84.4	84.2	128
RPMI 5 mM glucose + 10% FBS, 0.0211 µM	93.8	89	129
RPMI 5 mM glucose + 10% FBS, 0.0632 µM	93.5	92.9	120
RPMI 5 mM glucose + 10% FBS, 0.19 µM	98.7	77.1	68
RPMI 5 mM glucose + 10% FBS, 0.569 µM	5.96	12.3	5.08
RPMI 5 mM glucose + 10% FBS, 1.71 µM	4.95	6.62	6.09
RPMI 5 mM glucose + 10% FBS, 5.12 µM	4.62	3.34	5.71
RPMI 5 mM glucose + 10% FBS, 15.4 µM	3.68	2.59	6.09
RPMI 5 mM glucose + 10% FBS, 46.1 µM	3.47	3.22	6.13
RPMI 5 mM glucose + 10% dialyzed FBS, 0.000781 µM	80	79.7	83.4
RPMI 5 mM glucose + 10% dialyzed FBS, 0.00234 µM	87.7	82.9	76.3
RPMI 5 mM glucose + 10% dialyzed FBS, 0.00702 µM	91.2	93	103
RPMI 5 mM glucose + 10% dialyzed FBS, 0.0211 µM	94.7	97	73.3
RPMI 5 mM glucose + 10% dialyzed FBS, 0.0632 µM	95	93.2	78.8
RPMI 5 mM glucose + 10% dialyzed FBS, 0.19 µM	73.9	77.6	43.6
RPMI 5 mM glucose + 10% dialyzed FBS, 0.569 µM	3.8	17.9	4.95
RPMI 5 mM glucose + 10% dialyzed FBS, 1.71 µM	3.8	11.6	4.94
RPMI 5 mM glucose + 10% dialyzed FBS, 5.12 µM	3.2	5.08	4.59
RPMI 5 mM glucose + 10% dialyzed FBS, 15.4 µM	2.9	2.82	4.42
RPMI 5 mM glucose + 10% dialyzed FBS, 46.1 µM	3.15	3.14	4.34
